How the values were obtained:
RORγt = molecular target: T1, RORγt (Homo sapiens, UniProt P51449); assay: RORγ Reporter Assay (GAL4-UAS luciferase reporter in HEK293 cells); assay type: cell-based; conditions: benzoxazines, Table 9; HEK cells
T1 construct: The resulting GAL4-RORγt-LBD fusion construct was placed under the control of a constitutive cytomegalovirus (CMV) promoter; expressed in transfected cells; host or cells: HEK293
T1 sequence (P51449 269-508 limits assumed): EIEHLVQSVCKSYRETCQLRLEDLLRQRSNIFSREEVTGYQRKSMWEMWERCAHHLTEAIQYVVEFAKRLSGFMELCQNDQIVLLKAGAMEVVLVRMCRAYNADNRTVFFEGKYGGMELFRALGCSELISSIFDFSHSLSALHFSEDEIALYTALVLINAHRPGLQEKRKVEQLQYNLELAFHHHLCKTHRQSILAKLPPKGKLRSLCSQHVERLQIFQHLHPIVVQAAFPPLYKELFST
Protocol: Inhibition of RORγt in cells was determined using a GAL4-UAS reporter system in HEK293 cells employing a luciferase readout. The RORγt DNA binding domain (DBD) was replaced with the heterologous yeast GAL4 DBD using standard recombinant DNA methods. The resulting GAL4-RORγt-LBD fusion construct was placed under the control of a constitutive cytomegalovirus (CMV) promoter by cloning it into the CMV-driven mammalian expression vector pcDNA3.1+− (Promega Corporation, Madison, Wis.).
A transcriptional reporter expression construct was used to monitor GAL4-RORγ activity, which contained five copies of the GAL4 binding site enhancer (UAS) controlling expression of a firefly luciferase reporter. This construct, pGL4.31, is commercially available from Promega Corporation, Madison Wis. Both expression constructs were transfected in bulk into HEK-293 cells using standard lipid-based transfection techniques, which allowed the GAL4 RORγ-LBD fusion protein to drive expression of the luciferase reporter. Control transfections were performed with an empty pCDN3.1+ vector.
The next day, cells were plated into 384 well plates, test compound was added, and the plates were incubated overnight. […] Promega firefly assays kits were used to stabilize the luciferase signal, and the intensity of the luciferase signal was measured using an EnVision Multilabel Plate Reader (Perkin Elmer, Waltham, Mass.).
HEK 293 cells are transfected with GAL4-NR construct (CMV:NR-LBD in pcDNA3.1neo) and the pGL4.31 GAL4-luciferase reporter construct (Promega). For a background control, use empty pcDNA3.1neo and pGL4.31. Transfection protocol is for a single T75 flask performed with Minis Trans-It 293 reagent. A 60 μL aliquot of Trans-IT reagent at room temperature is added drop wise to 1.5 mL of Optimem (Invitrogen). The resulting solution is mixed by inversion and incubated for 5-20 minutes at room temperature. This reagent mixture is added to 10 μg of DNA (5 μg of each expression vector used at a concentration of 1 mg/mL). The solution is mixed by inversion and incubated at room temperature for 20 minutes.
While the Trans-IT reagent and DNA are incubating, harvest HEK-293 cells. Remove media from flasks via aspiration and add enough TrypLE Express (stable Trypsin-like reagent, Invitrogen) to cover the bottom of the flask. The mixture is incubated at room temperature until the cells are visibly loose in the flask (approximately 2-5 minutes). Add an equal volume of complete growth media, and then pipette to achieve a single cell suspension. Spin down 1×10^7 cells and re-suspend the cells in 10 mL of complete growth media (DMEM high glucose/10% dialyzed FBS/pen/strep; Invitrogen). The cells and transfection mixture are added to one T75 flask. The contents of the T75 flax are mixed and incubated overnight at 37° C. and 5% CO2.
After 16-24 hours, cells are harvested and plated for test compound screening. Cells may be harvested as described above. Next, cells are counted and an appropriate number of cells are spun down. Then, cells are aspirated and re-suspended in complete growth media at a concentration of 0.5×10^6 cells/mL to provide a cell suspension. Plate 20 μL of the cell suspension into a white, tissue-culture treated 384 well plate. (10,000 cells/well).
A 10 mM stock solution of test compound in dimethylsulfoxide (DMSO) was diluted to 500× the final test concentration in DMSO, then diluted to 5× the final test concentration with complete growth medium to provide the Test Compound Solution. The concentration of DMSO in the Test Compound Solution was […]. A 5 μL aliquot of Test Compound Solution was added to each test well in the 384 well plate previously plated with the cell suspension. Next, plates are spun briefly and incubated overnight at 37° C. and 5% CO2.
After 16-24 hours, the luciferase assay is performed. Plates and luciferase reagent (e.g. One-Glo® or Dual Glo®; Promega, Madison, Wis.) are brought to room temperature.

RORγ-LBD = molecular target: T2, RORγ-LBD (Homo sapiens, UniProt P51449); assay: RORγ-Ligand Binding Domain TR-FRET Assay; assay type: biochemical; conditions: benzoxazines, Table 9
T2 construct: HIS-tagged RORγ-LBD was recombinantly expressed in SF9 cells; made in house; host or cells: SF9 cells (baculovirus); unpurified lysate
T2 sequence (P51449 269-508 limits assumed): T1 sequence (P51449 269-508 limits assumed)
How it was run: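 Unpurified His-tagged LBD in Sf9 lysate (~10 nM final) in 25 mM HEPES pH 7.0, 100 mM NaCl, 0.01% Tween, 0.1% BSA, with biotinylated SRC1-2 LXXLL peptide (450 nM), Eu anti-His (2 nM) and streptavidin-APC (60 nM). Incubated 4 h to overnight; IC50 from 665/615 nm TR-FRET ratio.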

With `CCOCC1CN(S(=O)(=O)c2ccc(F)cc2)c2cc(NC(=O)c3c(Cl)cccc3Cl)ccc2O1` (stereo not drawn) [VI-108] the IC50 (RORγt) was < 15 µM and the IC50 (RORγ-LBD) was < 15 µM.

`CCOCC1CN(S(=O)(=O)c2ccc(F)cc2)c2cc(NC(=O)c3c(F)cccc3F)ccc2O1` (stereo not drawn) [VI-112] was tested, and the IC50 (RORγt) was < 15 µM and the IC50 (RORγ-LBD) was < 15 µM.

`Cc1cccc(F)c1C(=O)Nc1ccc2c(c1)N(S(=O)(=O)c1cccc(C#N)c1)C[C@H](CO)O2` [VI-45] was tested, and the IC50 (RORγt) was < 15 µM and the IC50 (RORγ-LBD) was < 15 µM.

`O=C(Nc1ccc2c(c1)N(S(=O)(=O)c1ccc(F)cc1)CC(CC(F)(F)F)O2)c1c(Cl)cccc1Cl` (stereo not drawn) [VI-13] was tested, and the IC50 (RORγt) was < 15 µM and the IC50 (RORγ-LBD) was < 15 µM.

`CCOCC1CN(S(=O)(=O)c2ccc(Cl)cc2)c2cc(NC(=O)c3c(Cl)cccc3Cl)ccc2O1` (stereo not drawn) [VI-92] was tested, and the IC50 (RORγt) was < 15 µM and the IC50 (RORγ-LBD) was < 15 µM.

In the case of `O=C(Nc1ccc2c(c1)N(S(=O)(=O)c1ccc(F)cc1)C[C@H](CO)O2)c1c(F)cccc1F` [VI-114], the IC50 (RORγt) is reported as < 15 µM and the IC50 (RORγ-LBD) is reported as < 15 µM.

In the case of `COCC1CN(S(=O)(=O)c2cccc(C#N)c2)c2cc(NC(=O)c3c(F)cccc3F)ccc2O1` (stereo not drawn) [VI-103], the IC50 (RORγt) is reported as < 15 µM and the IC50 (RORγ-LBD) is reported as < 15 µM.

For `CC1(C)CN(S(=O)(=O)c2ccc(F)cc2)c2cc(NC(=O)c3c(F)cccc3C(F)(F)F)ccc2O1` [VI-124], the IC50 (RORγt) was < 15 µM and the IC50 (RORγ-LBD) was < 15 µM.

With `COc1ccc(S(=O)(=O)N2C[C@H](CO)Oc3ccc(NC(=O)c4c(F)cccc4Cl)cc32)cn1` [VI-28] the IC50 (RORγt) was < 15 µM and the IC50 (RORγ-LBD) was < 15 µM.

For `COc1ccc(S(=O)(=O)N2C[C@H](CO)Oc3cc(F)c(NC(=O)c4c(F)cccc4Cl)cc32)cn1` [VI-46], the IC50 (RORγt) was < 15 µM and the IC50 (RORγ-LBD) was < 15 µM.

With `Cc1nn(C(F)F)cc1S(=O)(=O)N1C[C@H](CO)Oc2ccc(NC(=O)c3c(Cl)cccc3C(F)(F)F)cc21` [VI-29] the IC50 (RORγt) was < 15 µM and the IC50 (RORγ-LBD) was < 15 µM.

`COCC1CN(S(=O)(=O)c2ccc(Cl)cc2)c2cc(NC(=O)c3c(Cl)cccc3C(F)(F)F)ccc2O1` (stereo not drawn) [VI-91] was tested, and the IC50 (RORγt) was < 15 µM and the IC50 (RORγ-LBD) was < 15 µM.

For `Cc1nn(C(F)F)cc1S(=O)(=O)N1C[C@H](C)Oc2ccc(NC(=O)c3c(Cl)cccc3C(F)(F)F)cc21` [VI-11], the IC50 (RORγt) was < 15 µM and the IC50 (RORγ-LBD) was < 15 µM.

For `O=C(Nc1ccc2c(c1)N(S(=O)(=O)c1ccc(F)cc1)C[C@H](CF)O2)c1c(F)cccc1Cl` [Compound 22, (R)-2-Chloro-6-fluoro-N-(2-(fluoromethyl)-4-((4-fluorophenyl)sulfonyl)-3,4-dihydro-2H-benzo[b][1,4]oxazin-6-yl)benzamide], the IC50 (RORγt) was < 15 µM and the IC50 (RORγ-LBD) was < 15 µM.

With `COCC1CN(S(=O)(=O)c2cccc(C#N)c2)c2cc(NC(=O)c3c(F)cccc3Cl)ccc2O1` (stereo not drawn) [VI-101] the IC50 (RORγt) was < 15 µM and the IC50 (RORγ-LBD) was < 15 µM.

In the case of `COCC1CN(S(=O)(=O)c2ccc(F)c(F)c2)c2cc(NC(=O)c3c(F)cccc3F)ccc2O1` (stereo not drawn) [VI-81], the IC50 (RORγt) is reported as < 15 µM and the IC50 (RORγ-LBD) is reported as < 15 µM.

`O=C(Nc1ccc2c(c1)N(S(=O)(=O)c1ccc(F)cc1)CC(CNCC1CC1)O2)c1c(F)cccc1Cl` (stereo not drawn) [VI-32] was tested, and the IC50 (RORγt) was < 15 µM and the IC50 (RORγ-LBD) was < 15 µM.

In the case of `CC(C)NCC1CN(S(=O)(=O)c2ccc(F)cc2)c2cc(NC(=O)c3c(F)cccc3Cl)ccc2O1` (stereo not drawn) [VI-35], the IC50 (RORγt) is reported as < 15 µM and the IC50 (RORγ-LBD) is reported as < 15 µM.

In the case of `O=C(Nc1ccc2c(c1)N(S(=O)(=O)c1ccc(Cl)cc1)C[C@H](CO)O2)c1c(F)cccc1Cl` [VI-86], the IC50 (RORγt) is reported as < 15 µM and the IC50 (RORγ-LBD) is reported as < 15 µM.

In the case of `O=C(Nc1ccc2c(c1)N(S(=O)(=O)c1ccc(F)cc1)C[C@@H](CO)O2)c1c(Cl)cccc1C(F)(F)F` [VI-122], the IC50 (RORγt) is reported as < 15 µM and the IC50 (RORγ-LBD) is reported as < 15 µM.

In the case of `O=C(Nc1ccc2c(c1)N(S(=O)(=O)c1ccc(Cl)cc1)C[C@H](CO)O2)c1c(Cl)cccc1C(F)(F)F` [VI-84], the IC50 (RORγt) is reported as < 15 µM and the IC50 (RORγ-LBD) is reported as < 15 µM.

For `O=C(Nc1ccc2c(c1)N(S(=O)(=O)c1ccc(F)c(F)c1)C[C@@H](CO)O2)c1c(Cl)cccc1Cl` [VI-73], the IC50 (RORγt) was < 15 µM and the IC50 (RORγ-LBD) was < 15 µM.

With `CC(C)OCC1CN(S(=O)(=O)c2ccc(F)cc2)c2cc(NC(=O)c3c(Cl)cccc3Cl)ccc2O1` (stereo not drawn) [VI-109] the IC50 (RORγt) was < 15 µM and the IC50 (RORγ-LBD) was < 15 µM.

With `COc1ccc(S(=O)(=O)N2C[C@H](CO)Oc3ccc(NC(=O)c4c(C)cccc4Cl)cc32)cn1` [VI-27] the IC50 (RORγt) was < 15 µM and the IC50 (RORγ-LBD) was < 15 µM.

Reference: patent publication US9512111B2, “N-sulfonylated tetrahydroquinolines and related bicyclic compounds for inhibition of RORγ activity and the treatment of disease” (Lycera Corporation, priority 2010, dated 2016)
